# Reference: US20250152592A1, “PHARMACEUTICAL COMPOSITION COMPRISING ALLOPURINOL, FEBUXOSTAT OR PHARMACEUTICALLY ACCEPTABLE SALT THEREOF FOR PREVENTION OR TREATMENT OF CHRONIC KIDNEY DISEASE IN SUBJECT HAVING HIGH SERUM URIC ACID CONCENTRATION” (Indream Healthcare Inc., priority 2022, published 2025)
# Tested on: patients with gout and a history of major cardiovascular diseases
# Assay: eGFR over time by average serum uric acid concentration, analysis of clinical trial data
# Assay type: in vivo, human
# Settings: for eGFR Mean (95% CI): febuxostat group
# Protocol: In order to evaluate non-inferiority of febuxostat to allopurinol related to cardiovascular risk, a clinical trial was designed and proceeded.
# A multicenter, randomized, double-blind non-inferiority trial was performed. The details of the clinical trial design have been published previously. An independent data and safety monitoring committee with access to unblinded data monitored the clinical trial. The statistical analysis for the data and the safety monitoring committee was performed by an independent statistical group (WebbWrites).
# The patients were regarded as having a history of major cardiovascular diseases, if they had myocardial infarction, hospitalization for unstable angina, stroke, hospitalization for transient ischemic attack, peripheral vascular disease, or diabetes mellitus symptoms. All participants provided a prior informed consent form.
# The patients were randomly assigned so that they received febuxostat or allopurinol administered once a day in a double-blind manner. The randomization was stratified according to the estimated creatinine clearance at baseline (patient group having an estimated creatinine clearance ≥60 ml per minute vs patient group having an estimated creatinine clearance ≥30 and <60 ml per minute).
# The dose of allopurinol was modified according to a kidney function. The patients with the estimated creatinine clearance 60 ml or more per minute i) initially received allopurinol at a dose of 300 mg once a day, and the dose was increased in 100 mg increments monthly until the patient had the serum uric acid concentration of less than 6.0 mg per deciliter or the dosage of allopurinol was 600 mg once a day. The patient having the estimated creatinine clearance of 30 ml or more and less than 60 ml per minute initially received 200 mg of allopurinol, and then the dose was increased in 100 mg increments until the patient either had the serum uric acid concentration of less than 6.0 mg per deciliter or was receiving the allopurinol dose of 400 mg once daily.
# The dose of febuxostat was not modified according to the kidney function. The patients who were randomly assigned to receive febuxostat initially received 40 mg once a daily, and continued to receive the same dosage if the serum uric acid concentration was less than 6.0 mg per deciliter after 2 weeks of the treatment. If the serum uric acid concentration was higher than 6.0 mg per deciliter at 2nd week visit, the dose of febuxostat was increased to 80 mg once daily for the remainder of the trial.
# During the period, the administration of a double-blind and double-dummy trial medications was guided by an interactive voice-response system which was a procedure to prevent unblinding for the patients whose dose was not adjusted. After completing dose adjustment, the urate level was concealed from the investigators, and the treatment was managed throughout the trial using the interactive voice-response system.
# Outpatient visits were conducted according to the following schedule: during screening and randomization, and at 2, 4, 6, 8, 10, 12, and 24 weeks after the randomization, and every 6 months during the subsequent years of the trial. The patients with reduced kidney function or, the patients aged 65 years or older at randomization were visited at 9 and 15 months for monitoring the serum chemical profile. If the patient agreed to be monitored, but would not return for study visit, telephone contact was made, but such method was not preferred or recommended.
# In order to confirm the effect of allopurinol and febuxostat on the kidney disease, the data obtained in the clinical trial described above was analyzed.
smiles,measurement,setting,value
Cc1nc(-c2ccc(OCC(C)C)c(C#N)c2)sc1C(=O)O [febuxostat],prevention or treatment of chronic kidney disease when serum uric acid maintained below 6,"blood glucose ≥126 mg/dl, DBP ≤80 mmHg, SBP ≤130 mmHg, serum uric acid ≥8 mg/dl, or gout history 10 years or more",effectively prevented or treated
same,eGFR Mean (95% CI),"Baseline UA≥ 8, Average UA <6, Baseline",61.87 (60.73-63.01) ml/min/1.73 m^2
same,eGFR Mean (95% CI),"Baseline UA≥ 8, Average UA <6, Month 3",62.09 (60.91-63.28) ml/min/1.73 m^2
same,eGFR Mean (95% CI),"Baseline UA≥ 8, Average UA <6, Month 18",62.99 (61.62-64.36) ml/min/1.73 m^2
same,eGFR Mean (95% CI),"Baseline UA≥ 8, Average UA <6, Month 24",63.15 (61.69-64.61) ml/min/1.73 m^2
same,eGFR Mean (95% CI),"Baseline UA≥ 8, Average UA <6, Month 30",63.85 (62.28-65.43) ml/min/1.73 m^2
same,eGFR Mean (95% CI),"Baseline UA≥ 8, Average UA <6, Month 36",64.04 (62.38-65.70) ml/min/1.73 m^2
same,eGFR Mean (95% CI),"Baseline UA≥ 8, Average UA <6, Month 42",63.75 (61.92-65.59) ml/min/1.73 m^2
same,eGFR Mean (95% CI),"Baseline UA≥ 8, Average UA <6, Month 48",65.32 (63.28-67.37) ml/min/1.73 m^2
same,eGFR Mean (95% CI),"Baseline UA≥ 8, Average UA <6, Month 54",66.35 (64.11-68.58) ml/min/1.73 m^2
same,eGFR Mean (95% CI),"Baseline UA≥ 8, Average UA <6, Month 60",66.48 (63.94-69.02) ml/min/1.73 m^2
same,eGFR Mean (95% CI),"Baseline UA≥ 8, Average UA <6, Week 2",62.03 (60.84-63.22) ml/min/1.73 m^2
same,eGFR Mean (95% CI),"Baseline UA≥ 8, Average UA ≥6, Baseline",63.17 (61.34-65.00) ml/min/1.73 m^2
same,eGFR Mean (95% CI),"Baseline UA≥ 8, Average UA ≥6, Month 3",63.02 (61.13-64.91) ml/min/1.73 m^2
same,eGFR Mean (95% CI),"Baseline UA≥ 8, Average UA ≥6, Month 18",61.52 (59.25-63.79) ml/min/1.73 m^2
same,eGFR Mean (95% CI),"Baseline UA≥ 8, Average UA ≥6, Month 24",62.08 (59.58-64.57) ml/min/1.73 m^2
same,eGFR Mean (95% CI),"Baseline UA≥ 8, Average UA ≥6, Month 30",60.68 (57.82-63.54) ml/min/1.73 m^2
same,eGFR Mean (95% CI),"Baseline UA≥ 8, Average UA ≥6, Month 36",61.32 (58.15-64.49) ml/min/1.73 m^2
same,eGFR Mean (95% CI),"Baseline UA≥ 8, Average UA ≥6, Month 42",60.90 (57.46-64.34) ml/min/1.73 m^2
same,eGFR Mean (95% CI),"Baseline UA≥ 8, Average UA ≥6, Month 48",61.54 (57.81-65.27) ml/min/1.73 m^2
same,eGFR Mean (95% CI),"Baseline UA≥ 8, Average UA ≥6, Month 54",62.30 (58.01-66.59) ml/min/1.73 m^2
same,eGFR Mean (95% CI),"Baseline UA≥ 8, Average UA ≥6, Month 60",61.06 (55.87-66.24) ml/min/1.73 m^2
same,eGFR Mean (95% CI),"Baseline UA≥ 8, Average UA ≥6, Week 2",63.18 (61.22-65.15) ml/min/1.73 m^2
same,eGFR Mean (95% CI),"Baseline blood glucose level ≥126, Average UA <6, Baseline",64.23 (62.54-65.93) ml/min/1.73 m^2
same,eGFR Mean (95% CI),"Baseline blood glucose level ≥126, Average UA <6, Month 3",63.54 (61.75-65.32) ml/min/1.73 m^2
same,eGFR Mean (95% CI),"Baseline blood glucose level ≥126, Average UA <6, Month 6",63.33 (61.52-65.14) ml/min/1.73 m^2
same,eGFR Mean (95% CI),"Baseline blood glucose level ≥126, Average UA <6, Month 12",64.32 (62.49-66.15) ml/min/1.73 m^2
same,eGFR Mean (95% CI),"Baseline blood glucose level ≥126, Average UA <6, Month 18",63.84 (61.79-65.89) ml/min/1.73 m^2
same,eGFR Mean (95% CI),"Baseline blood glucose level ≥126, Average UA <6, Month 24",64.49 (62.28-66.69) ml/min/1.73 m^2
same,eGFR Mean (95% CI),"Baseline blood glucose level ≥126, Average UA <6, Month 30",63.64 (61.38-65.91) ml/min/1.73 m^2
same,eGFR Mean (95% CI),"Baseline blood glucose level ≥126, Average UA <6, Month 36",64.30 (61.77-66.83) ml/min/1.73 m^2
same,eGFR Mean (95% CI),"Baseline blood glucose level ≥126, Average UA <6, Month 42",63.94 (61.12-66.76) ml/min/1.73 m^2
same,eGFR Mean (95% CI),"Baseline blood glucose level ≥126, Average UA <6, Month 48",65.35 (62.27-68.43) ml/min/1.73 m^2
same,eGFR Mean (95% CI),"Baseline blood glucose level ≥126, Average UA <6, Month 54",66.66 (63.21-70.10) ml/min/1.73 m^2
same,eGFR Mean (95% CI),"Baseline blood glucose level ≥126, Average UA <6, Month 60",67.78 (63.68-71.89) ml/min/1.73 m^2
same,eGFR Mean (95% CI),"Baseline blood glucose level ≥126, Average UA <6, Week 2",64.06 (62.29-65.83) ml/min/1.73 m^2
same,eGFR Mean (95% CI),"Baseline blood glucose level ≥126, Average UA ≥6, Baseline",65.94 (62.79-69.10) ml/min/1.73 m^2
same,eGFR Mean (95% CI),"Baseline blood glucose level ≥126, Average UA ≥6, Month 3",64.51 (61.21-67.81) ml/min/1.73 m^2
same,eGFR Mean (95% CI),"Baseline blood glucose level ≥126, Average UA ≥6, Month 6",64.04 (60.85-67.23) ml/min/1.73 m^2
same,eGFR Mean (95% CI),"Baseline blood glucose level ≥126, Average UA ≥6, Month 12",62.81 (59.35-66.28) ml/min/1.73 m^2
same,eGFR Mean (95% CI),"Baseline blood glucose level ≥126, Average UA ≥6, Month 18",62.28 (58.22-66.35) ml/min/1.73 m^2
same,eGFR Mean (95% CI),"Baseline blood glucose level ≥126, Average UA ≥6, Month 24",62.44 (58.21-66.68) ml/min/1.73 m^2
same,eGFR Mean (95% CI),"Baseline blood glucose level ≥126, Average UA ≥6, Month 30",61.66 (57.17-66.16) ml/min/1.73 m^2
same,eGFR Mean (95% CI),"Baseline blood glucose level ≥126, Average UA ≥6, Month 36",62.64 (57.30-67.99) ml/min/1.73 m^2
same,eGFR Mean (95% CI),"Baseline blood glucose level ≥126, Average UA ≥6, Month 42",62.33 (56.68-67.99) ml/min/1.73 m^2
same,eGFR Mean (95% CI),"Baseline blood glucose level ≥126, Average UA ≥6, Month 48",60.51 (54.59-66.44) ml/min/1.73 m^2
same,eGFR Mean (95% CI),"Baseline blood glucose level ≥126, Average UA ≥6, Month 54",60.70 (53.73-67.67) ml/min/1.73 m^2
same,eGFR Mean (95% CI),"Baseline blood glucose level ≥126, Average UA ≥6, Month 60",60.00 (50.87-69.14) ml/min/1.73 m^2
same,eGFR Mean (95% CI),"Baseline blood glucose level ≥126, Average UA ≥6, Week 2",64.56 (61.25-67.87) ml/min/1.73 m^2
same,eGFR Mean (95% CI),"DBP <80, Average UA <6, Baseline",62.24 (61.02-63.45) ml/min/1.73 m^2
same,eGFR Mean (95% CI),"DBP <80, Average UA <6, Month 3",61.85 (60.63-63.08) ml/min/1.73 m^2
same,eGFR Mean (95% CI),"DBP <80, Average UA <6, Month 6",61.84 (60.56-63.11) ml/min/1.73 m^2
